Measured values: PubChem BioAssay (NCI)
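A five-concentration, 48-hour dose response in 96-well plates underlies each endpoint, interpolated linearly between surrounding concentrations. Definition used: TGI = concentration required for complete inhibition of growth.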

Experiments:
Experiment in all cases: NCI tumour cell line growth inhibition, 48 h
HT29 colon = system: HT29 colon
SW-620 colon = system: SW-620 colon
EKVX NSCLC = system: EKVX NSCLC
MOLT-4 leukemia = system: MOLT-4 leukemia
SF-268 CNS = system: SF-268 CNS
OVCAR-4 ovarian = system: OVCAR-4 ovarian
HCT-116 colon = system: HCT-116 colon
NCI-H522 lung = system: NCI-H522 lung
XF 498 CNS = system: XF 498 CNS
SN12K1 renal = system: SN12K1 renal
SF-539 CNS = system: SF-539 CNS
LOX IMVI melanoma = system: LOX IMVI melanoma
HOP-62 NSCLC = system: HOP-62 NSCLC
A549 NSCLC = system: A549 NSCLC
HCT-15 colon = system: HCT-15 colon
K-562 leukemia = system: K-562 leukemia
RPMI-8226 leukemia = system: RPMI-8226 leukemia
CAKI-1 renal = system: CAKI-1 renal
HL-60(TB) leukemia = system: HL-60(TB) leukemia
MCF7 breast = system: MCF7 breast
OVCAR-5 ovarian = system: OVCAR-5 ovarian
DLD-1 colon = system: DLD-1 colon
SNB-78 CNS = system: SNB-78 CNS
UO-31 renal = system: UO-31 renal
OVCAR-8 ovarian = system: OVCAR-8 ovarian
MALME-3M melanoma = system: MALME-3M melanoma
NCI-H226 lung = system: NCI-H226 lung
DMS 114 small cell lung = system: DMS 114 small cell lung
SF-295 CNS = system: SF-295 CNS
KM12 colon = system: KM12 colon
M19-MEL melanoma = system: M19-MEL melanoma
UACC-257 melanoma = system: UACC-257 melanoma
UACC-62 melanoma = system: UACC-62 melanoma
SK-MEL-28 melanoma = system: SK-MEL-28 melanoma
OVCAR-3 ovarian = system: OVCAR-3 ovarian
DMS 273 small cell lung = system: DMS 273 small cell lung
A498 renal = system: A498 renal
SK-OV-3 ovarian = system: SK-OV-3 ovarian
SN12C renal = system: SN12C renal
NCI-H23 lung = system: NCI-H23 lung
SNB-75 CNS = system: SNB-75 CNS
COLO 205 colon = system: COLO 205 colon
CCRF-CEM leukemia = system: CCRF-CEM leukemia
SNB-19 CNS = system: SNB-19 CNS
HOP-18 NSCLC = system: HOP-18 NSCLC
U251 CNS = system: U251 CNS
NCI/ADR-RES ovarian = system: NCI/ADR-RES ovarian
P388/ADR leukemia = system: P388/ADR leukemia
HCC-2998 colon = system: HCC-2998 colon
HOP-92 NSCLC = system: HOP-92 NSCLC
NCI-H460 lung = system: NCI-H460 lung
RXF 393 renal = system: RXF 393 renal
SK-MEL-5 melanoma = system: SK-MEL-5 melanoma
KM20L2 colon = system: KM20L2 colon
P388 leukemia = system: P388 leukemia
SK-MEL-2 melanoma = system: SK-MEL-2 melanoma
IGROV1 ovarian = system: IGROV1 ovarian

O=P(O)(O)C(CSc1ccccc1)P(=O)(O)O
TGI (HT29 colon): > 100 µM
TGI (SW-620 colon): > 100 µM
TGI (EKVX NSCLC): > 100 µM
TGI (MOLT-4 leukemia): > 100 µM
TGI (SF-268 CNS): > 100 µM
TGI (OVCAR-4 ovarian): > 100 µM
TGI (HCT-116 colon): > 100 µM
TGI (NCI-H522 lung): > 100 µM
TGI (XF 498 CNS): > 100 µM
TGI (SN12K1 renal): > 100 µM
TGI (SF-539 CNS): > 100 µM
TGI (LOX IMVI melanoma): > 100 µM
TGI (HOP-62 NSCLC): > 100 µM
TGI (A549 NSCLC): > 100 µM
TGI (HCT-15 colon): > 100 µM
TGI (K-562 leukemia): > 100 µM
TGI (RPMI-8226 leukemia): > 100 µM
TGI (CAKI-1 renal): > 100 µM
TGI (HL-60(TB) leukemia): > 100 µM
TGI (MCF7 breast): > 100 µM
TGI (OVCAR-5 ovarian): > 100 µM
TGI (DLD-1 colon): > 100 µM
TGI (SNB-78 CNS): > 100 µM
TGI (UO-31 renal): > 100 µM
TGI (OVCAR-8 ovarian): > 100 µM
TGI (MALME-3M melanoma): > 100 µM
TGI (NCI-H226 lung): > 100 µM
TGI (DMS 114 small cell lung): > 100 µM
TGI (SF-295 CNS): > 100 µM
TGI (KM12 colon): > 100 µM
TGI (M19-MEL melanoma): > 100 µM
TGI (UACC-257 melanoma): > 100 µM
TGI (UACC-62 melanoma): > 100 µM
TGI (SK-MEL-28 melanoma): > 100 µM
TGI (OVCAR-3 ovarian): > 69.2 µM
TGI (DMS 273 small cell lung): > 100 µM
TGI (A498 renal): > 100 µM
TGI (SK-OV-3 ovarian): > 100 µM
TGI (SN12C renal): > 100 µM
TGI (NCI-H23 lung): > 100 µM
TGI (SNB-75 CNS): > 100 µM
TGI (COLO 205 colon): > 100 µM
TGI (CCRF-CEM leukemia): > 100 µM
TGI (SNB-19 CNS): > 100 µM
TGI (HOP-18 NSCLC): > 100 µM
TGI (U251 CNS): > 100 µM
TGI (NCI/ADR-RES ovarian): > 100 µM
TGI (P388/ADR leukemia): > 100 µM
TGI (HCC-2998 colon): > 100 µM
TGI (HOP-92 NSCLC): > 100 µM
TGI (NCI-H460 lung): > 100 µM
TGI (RXF 393 renal): > 100 µM
TGI (SK-MEL-5 melanoma): > 100 µM
TGI (KM20L2 colon): > 100 µM
TGI (P388 leukemia): > 100 µM
TGI (SK-MEL-2 melanoma): > 100 µM
TGI (IGROV1 ovarian): > 100 µM
